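Assay format: 96-well plates, 48-hour exposure. GI50: concentration for 50% inhibition of growth.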 Active and inactive are the calls of the source. Cut-off read from the data, not from the text of the source: active = GI50 up to about 1.1 µM and inactive = higher.
Key:
Assay in all cases: NCI tumour cell line growth inhibition, 48 h
ACHN = system: ACHN
CAKI-1 = system: CAKI-1
HL-60 = system: HL-60
HOP-92 = system: HOP-92
HT-29 = system: HT-29
K562 = system: K562
KM12 = system: KM12
M14 = system: M14
NCI-H23 = system: NCI-H23
NCI-H460 = system: NCI-H460
OVCAR-3 = system: OVCAR-3
OVCAR-4 = system: OVCAR-4
OVCAR-8 = system: OVCAR-8
SF-295 = system: SF-295
SF-539 = system: SF-539
SK-MEL-5 = system: SK-MEL-5
SN12C = system: SN12C
SNB-19 = system: SNB-19
UACC-257 = system: UACC-257
UACC-62 = system: UACC-62

SMILES: O=C1c2ccccc2C(=O)c2c(OCCOCCO)cccc21
- GI50 (ACHN): 43.9 µM (inactive)
- GI50 (CAKI-1): 21.9 µM (inactive)
- GI50 (HL-60): > 100 µM (inactive)
- GI50 (HOP-92): 12.6 µM (inactive)
- GI50 (HT-29): 63.4 µM (inactive)
- GI50 (K562): > 100 µM (inactive)
- GI50 (KM12): 46.6 µM (inactive)
- GI50 (M14): > 100 µM (inactive)
- GI50 (NCI-H23): > 100 µM (inactive)
- GI50 (NCI-H460): 54.7 µM (inactive)
- GI50 (OVCAR-3): 28.4 µM (inactive)
- GI50 (OVCAR-4): 72.9 µM (inactive)
- GI50 (OVCAR-8): 70.1 µM (inactive)
- GI50 (SF-295): 96.6 µM (inactive)
- GI50 (SF-539): 45.3 µM (inactive)
- GI50 (SK-MEL-5): 44.2 µM (inactive)
- GI50 (SN12C): 0.714 µM (active)
- GI50 (SNB-19): > 100 µM (inactive)
- GI50 (UACC-257): > 100 µM (inactive)
- GI50 (UACC-62): 0.585 µM (active)

SMILES: O=C1Nc2ccccc2/C1=N/NC(=S)Nc1ccccc1Cl
- GI50 (ACHN): 2.19 µM (inactive)
- GI50 (CAKI-1): 3.8 µM (inactive)
- GI50 (HL-60): 4.44 µM (inactive)
- GI50 (HOP-92): 3.7 µM (inactive)
- GI50 (HT-29): 5.41 µM (inactive)
- GI50 (K562): 1.54 µM (inactive)
- GI50 (KM12): 1.98 µM (inactive)
- GI50 (M14): 1.62 µM (inactive)
- GI50 (NCI-H23): 8.71 µM (inactive)
- GI50 (NCI-H460): 0.735 µM (active)
- GI50 (OVCAR-3): 2.16 µM (inactive)
- GI50 (OVCAR-4): 5.13 µM (inactive)
- GI50 (OVCAR-8): 2.23 µM (inactive)
- GI50 (SF-295): 1.29 µM (inactive)
- GI50 (SF-539): 2.4 µM (inactive)
- GI50 (SK-MEL-5): 2.89 µM (inactive)
- GI50 (SN12C): 10.4 µM (inactive)
- GI50 (SNB-19): 4.84 µM (inactive)
- GI50 (UACC-257): 2 µM (inactive)
- GI50 (UACC-62): 3.94 µM (inactive)

SMILES: CCOP(=O)(OCC)C(Cc1ccc(OC)c(OC)c1)N=C(c1ccccc1)c1ccccc1 (configuration not stated)
- GI50 (ACHN): 41.6 µM (inactive)
- GI50 (CAKI-1): 67 µM (inactive)
- GI50 (HL-60): 31.3 µM (inactive)
- GI50 (HOP-92): 37.9 µM (inactive)
- GI50 (HT-29): 36.8 µM (inactive)
- GI50 (K562): < 0.01 µM (active)
- GI50 (KM12): 36.4 µM (inactive)
- GI50 (M14): 51.8 µM (inactive)
- GI50 (NCI-H23): 41.6 µM (inactive)
- GI50 (NCI-H460): 34 µM (inactive)
- GI50 (OVCAR-3): 34.4 µM (inactive)
- GI50 (OVCAR-4): 81.7 µM (inactive)
- GI50 (OVCAR-8): 42.9 µM (inactive)
- GI50 (SF-295): 26.2 µM (inactive)
- GI50 (SF-539): 75 µM (inactive)
- GI50 (SK-MEL-5): 23.4 µM (inactive)
- GI50 (SN12C): 42 µM (inactive)
- GI50 (SNB-19): 63 µM (inactive)
- GI50 (UACC-257): 56.8 µM (inactive)
- GI50 (UACC-62): 68.7 µM (inactive)

SMILES: CN1C(=O)C2C=C3CCCCC3=CC2N(C)C1=O (configuration not stated)
- GI50 (ACHN): > 100 µM (inactive)
- GI50 (CAKI-1): > 100 µM (inactive)
- GI50 (HL-60): > 100 µM (inactive)
- GI50 (HOP-92): 99.1 µM (inactive)
- GI50 (HT-29): > 100 µM (inactive)
- GI50 (K562): > 100 µM (inactive)
- GI50 (KM12): > 100 µM (inactive)
- GI50 (M14): > 100 µM (inactive)
- GI50 (NCI-H23): > 100 µM (inactive)
- GI50 (NCI-H460): > 100 µM (inactive)
- GI50 (OVCAR-3): > 100 µM (inactive)
- GI50 (OVCAR-4): > 100 µM (inactive)
- GI50 (OVCAR-8): > 100 µM (inactive)
- GI50 (SF-295): > 100 µM (inactive)
- GI50 (SF-539): > 100 µM (inactive)
- GI50 (SK-MEL-5): > 100 µM (inactive)
- GI50 (SN12C): > 100 µM (inactive)
- GI50 (SNB-19): > 100 µM (inactive)
- GI50 (UACC-257): > 100 µM (inactive)
- GI50 (UACC-62): > 100 µM (inactive)

SMILES: C/C1=C\[C@@H](C)C[C@@H](C)OC(=O)[C@@H](C)NC(=O)[C@H](Cc2ccc(O)c(Br)c2)N(C)C(=O)CNC(=O)[C@H](C)C1
- GI50 (ACHN): < 0.01 µM (active)
- GI50 (CAKI-1): < 0.01 µM (active)
- GI50 (HL-60): < 0.01 µM (active)
- GI50 (HOP-92): < 0.01 µM (active)
- GI50 (HT-29): < 0.01 µM (active)
- GI50 (K562): < 0.01 µM (active)
- GI50 (M14): < 0.0202 µM (active)
- GI50 (NCI-H460): < 0.01 µM (active)
- GI50 (OVCAR-3): < 0.01 µM (active)
- GI50 (OVCAR-4): < 0.01 µM (active)
- GI50 (OVCAR-8): 0.137 µM (active)
- GI50 (SF-295): 0.0114 µM (active)
- GI50 (SF-539): < 0.01 µM (active)
- GI50 (SK-MEL-5): < 0.01 µM (active)
- GI50 (SN12C): 0.119 µM (active)
- GI50 (SNB-19): 0.295 µM (active)
- GI50 (UACC-257): < 0.01 µM (active)

SMILES: Cc1ccc(S(=O)(=O)C2=Cc3ccc(C(F)(F)F)cc3C2(O)c2cccc(C(F)(F)F)c2)cc1 (configuration not stated)
- GI50 (ACHN): 2.46 µM (inactive)
- GI50 (CAKI-1): 4.05 µM (inactive)
- GI50 (HL-60): 1.65 µM (inactive)
- GI50 (HOP-92): 1.88 µM (inactive)
- GI50 (HT-29): 2.19 µM (inactive)
- GI50 (K562): 1.99 µM (inactive)
- GI50 (KM12): 1.88 µM (inactive)
- GI50 (M14): 2.4 µM (inactive)
- GI50 (NCI-H23): 2.01 µM (inactive)
- GI50 (NCI-H460): 2.33 µM (inactive)
- GI50 (OVCAR-3): 1.64 µM (inactive)
- GI50 (OVCAR-4): 1.85 µM (inactive)
- GI50 (OVCAR-8): 1.41 µM (inactive)
- GI50 (SF-295): 2.45 µM (inactive)
- GI50 (SF-539): 1.95 µM (inactive)
- GI50 (SK-MEL-5): 1.88 µM (inactive)
- GI50 (SN12C): 1.88 µM (inactive)
- GI50 (SNB-19): 5.83 µM (inactive)
- GI50 (UACC-257): 1.85 µM (inactive)
- GI50 (UACC-62): 2.39 µM (inactive)
